Tested on: 217524-143-R1-J4-PDC spheroids with HUVEC/MSC, viability
Assay: Anticancer human tumor 217524-143-R1-J4-PDC patient-derived pancreatic carcinoma cell line growth inhibition [CLK]
Settings: for IC50: curve of first compound; for viability, T/C: stronger effect = lower value
Description: A high-throughput screen of multi-cell type tumor spheroids was designed to identify active combinations of […] and targeted small molecules. Complex spheroids include a stromal component modeled by human endothelial cells (HUVEC) and fibroblasts modeled by human mesenchymal stem cells (MSCs). The concentration ranges selected for each drug and investigational agent were based upon clinically achievable concentrations if the clinical Cmax of the agent was known.
Compounds. The drugs and investigational agents: cirtuvivint (SM08502; NSC835563), CC-671 (NSC850746), vemurafenib (NSC761431), tapotoclax (NSC804041), sotorasib (NSC818433), adagrasib (NSC831453), MRTX-1133 (NSC836407), BAY2416964 (NSC825713), copanlisib (NSC816437), inavolisib (NSC800729), abemaciclib (NSC768073), osimertinib (NSC779217), entinostat (NSC756642), eltanexor (KPT-8602, NSC794443), venetoclax (NSC766270), ceralasertib (NSC777638), bortezomib (NSC756655), olaparib (NSC753686), talazoparib (NSC767125), alisertib (NSC759677), peposertib (NSC802822), gemcitabine (NSC613327), 5-fluorouracil (NSC19893), SN-38 (NSC673596), oxaliplatin (NSC266046), paclitaxel (NSC125973), and doxorubicin (NSC123127), were obtained from the National Cancer Institute (NCI) Developmental Therapeutics Program Chemical Repository. The FDA-approved anticancer drug set is available from the Developmental Therapeutics Program at https://dtp.cancer.gov/organization/dscb/obtaining/available plates.htm. […] The stock solutions were prepared in dimethyl sulfoxide (DMSO, Sigma-Aldrich, St. Louis, MO, cat. D2650), except for the platinum complexes which were prepared in saline (Quality Biological, Gaithersburg, MD, cat. 114-055-101), at 800-fold the tested concentration and stored at -70 degrees C prior to their use. All drugs and investigational agents were tested over a range starting from a high concentration at or near the clinical Cmax and decreasing in half-log increments. If the clinical Cmax for an agent had not been determined, the highest concentration tested was 10 microM.
Cell Culture. All cells were maintained in an incubator at 37 degrees C and 5% CO2 with 95% humidity. The PDC lines were cultured according to standard operating procedures established by the NCI PDMR. Briefly, all PDCs were thawed and cultured in Matrigel-coated flasks prepared with a working solution of 1X Ham's F-12 nutrient mix, without supplementation (Invitrogen, Waltham, MA, cat. 11765054), 100 U/mL penicillin-streptomycin (Invitrogen, cat. 15140122), and 2.5% Matrigel (Corning Inc., Corning, NY, cat. 354248) for the first three passages. The 947758-054-R-J2-PDC line was cultured in 6B/Colon 1A media, which includes advanced DMEM/F-12 (Thermo Fisher Scientific, cat. 12634028), 10 mM HEPES (Thermo Fisher Scientific, cat. 15630080), 1X GlutaMAX supplement (Thermo Fisher Scientific, cat. 35050061), 0.1 mg/mL primocin (InvivoGen, cat. ant-pm-2), 10% defined fetal bovine serum, heat inactivated (HyClone Laboratories Inc., cat. SH30070.03HI), 1.25 mM N-Acetyl-L-cysteine (Sigma-Aldrich, cat. A9165), 10 mM nicotinamide (Sigma-Aldrich, cat. N0636), 1X B-27 supplement (Thermo Fisher Scientific, cat. 17504044), 1X N-2 supplement (Thermo Fisher Scientific, cat. 17502048), and 10 microM Y-27632 dihydrochloride (Tocris Bioscience, cat. 1254). The 876862-298-R-J1-PDC was cultured in 6E media, which includes all 6B/Colon 1A media components plus 50% L-WRN conditioned media (ATCC, cat. CRL-3276), 50 ng/mL recombinant human EGF recombinant protein (hEGF; Thermo Fisher Scientific, cat. PHG0311), 10 ng/mL recombinant human fibroblast growth factor 10 (hGFG-10; PeproTech, cat. 100-26), 1 ng/mL recombinant human fibroblast growth factor 2 (hFGF-2; PeproTech, cat. 100-18B), and 1 µM prostaglandin E2 (PGE2; Tocris, cat. 2296). The 227483-062-R1-J1-PDC line was cultured in Panc media, containing all 6E components except hFGF-2, with the addition of 500 nM SB-431542 (Selleckchem, cat. S1067) and 10 nM gastrin (Tocris, cat. 3006). […]

[1] = second compound 0.0316 µM, first compound 0.0316 µM
[2] = second compound 0.0316 µM, first compound 0.1 µM
[3] = second compound 0.0316 µM, first compound 0.316 µM
[4] = second compound 0.0316 µM, first compound 1 µM
[5] = second compound 0.0316 µM, first compound 3.16 µM
[6] = second compound 0.0316 µM, first compound 10 µM
[7] = second compound 0.1 µM, first compound 0.0316 µM
[8] = second compound 0.1 µM, first compound 0.1 µM
[9] = second compound 0.1 µM, first compound 0.316 µM
[10] = second compound 0.1 µM, first compound 1 µM
[11] = second compound 0.1 µM, first compound 3.16 µM
[12] = second compound 0.1 µM, first compound 10 µM
[13] = second compound 0.316 µM, first compound 0.0316 µM
[14] = second compound 0.316 µM, first compound 0.1 µM
[15] = second compound 0.316 µM, first compound 0.316 µM
[16] = second compound 0.316 µM, first compound 1 µM
[17] = second compound 0.316 µM, first compound 3.16 µM
[18] = second compound 0.316 µM, first compound 10 µM
[19] = second compound 1 µM, first compound 0.0316 µM
[20] = second compound 1 µM, first compound 0.1 µM
[21] = second compound 1 µM, first compound 0.316 µM
[22] = second compound 1 µM, first compound 1 µM
[23] = second compound 1 µM, first compound 3.16 µM
[24] = second compound 1 µM, first compound 10 µM
[25] = second compound 3.16 µM, first compound 0.0316 µM
[26] = second compound 3.16 µM, first compound 0.1 µM
[27] = second compound 3.16 µM, first compound 0.316 µM
[28] = second compound 3.16 µM, first compound 1 µM
[29] = second compound 3.16 µM, first compound 3.16 µM
[30] = second compound 3.16 µM, first compound 10 µM
[31] = second compound 10 µM, first compound 0.0316 µM
[32] = second compound 10 µM, first compound 0.1 µM
[33] = second compound 10 µM, first compound 0.316 µM
[34] = second compound 10 µM, first compound 1 µM
[35] = second compound 10 µM, first compound 3.16 µM
[36] = second compound 10 µM, first compound 10 µM
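Note: spheroids exposed to agents for seven days before reading.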
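Throughout, for viability, T/C: 100% = DMSO vehicle control viability.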

C#Cc1c(F)ccc2cc(O)cc(-c3ncc4c(N5CC6CCC(C5)N6)nc(OCC56CCCN5CC(F)C6)nc4c3F)c12 (stereo unspecified) + CN1CCN(c2cc(C(=O)Nc3cc4cc(-c5cnn(C)c5)ccc4cn3)ccn2)CC1
IC50 (second compound 0.0316 µM): > 10000 nM | IC50 (second compound 0.1 µM): 3210 nM | IC50 (second compound 0.316 µM): < 31.6 nM | IC50 (second compound 1 µM): < 31.6 nM | IC50 (second compound 3.16 µM): < 31.6 nM | IC50 (second compound 10 µM): < 31.6 nM | viability, T/C [1]: 76.1% | viability, T/C [2]: 74.4% | viability, T/C [3]: 65.5% | viability, T/C [4]: 85.1% | viability, T/C [5]: 81.1% | viability, T/C [6]: 55% | viability, T/C [7]: 53.6% | viability, T/C [8]: 46.2% | viability, T/C [9]: 53.2% | viability, T/C [10]: 55.5% | viability, T/C [11]: 49.3% | viability, T/C [12]: 37% | viability, T/C [13]: 28.3% | viability, T/C [14]: 23.9% | viability, T/C [15]: 25.2% | viability, T/C [16]: 21.6% | viability, T/C [17]: 24.8% | viability, T/C [18]: 18% | viability, T/C [19]: 2.18% | viability, T/C [20]: 2.28% | viability, T/C [21]: 3.15% | viability, T/C [22]: 2.36% | viability, T/C [23]: 1.66% | viability, T/C [24]: 2.26% | viability, T/C [25]: 0.79% | viability, T/C [26]: 0.88% | viability, T/C [27]: 0.86% | viability, T/C [28]: 0.96% | viability, T/C [29]: 0.86% | viability, T/C [30]: 0.79% | viability, T/C [31]: 0.25% | viability, T/C [32]: 0.25% | viability, T/C [33]: 0.2% | viability, T/C [34]: 0.23% | viability, T/C [35]: 0.23% | viability, T/C [36]: 0.43%

C=C(F)C(=O)N1CCN(c2nc(OCC3CCCN3C)nc3c2CCN(c2cccc4cccc(Cl)c24)C3)CC1CC#N (stereo unspecified) + CN1CCN(c2cc(C(=O)Nc3cc4cc(-c5cnn(C)c5)ccc4cn3)ccn2)CC1
IC50 (second compound 0.0316 µM): 5100 nM | IC50 (second compound 0.1 µM): 2300 nM | IC50 (second compound 0.316 µM): < 31.6 nM | IC50 (second compound 1 µM): < 31.6 nM | IC50 (second compound 3.16 µM): < 31.6 nM | IC50 (second compound 10 µM): < 31.6 nM | viability, T/C [1]: 71.2% | viability, T/C [2]: 89.9% | viability, T/C [3]: 91.9% | viability, T/C [4]: 87.9% | viability, T/C [5]: 82.2% | viability, T/C [6]: 4.47% | viability, T/C [7]: 61.6% | viability, T/C [8]: 54.7% | viability, T/C [9]: 53.9% | viability, T/C [10]: 50.8% | viability, T/C [11]: 49.1% | viability, T/C [12]: 3.1% | viability, T/C [13]: 25% | viability, T/C [14]: 24.5% | viability, T/C [15]: 31% | viability, T/C [16]: 22.8% | viability, T/C [17]: 18.4% | viability, T/C [18]: 1.05% | viability, T/C [19]: 1.86% | viability, T/C [20]: 2.01% | viability, T/C [21]: 2.61% | viability, T/C [22]: 1.74% | viability, T/C [23]: 1.47% | viability, T/C [24]: 0.1% | viability, T/C [25]: 0.87% | viability, T/C [26]: 1.12% | viability, T/C [27]: 0.66% | viability, T/C [28]: 0.73% | viability, T/C [29]: 0.71% | viability, T/C [30]: 0.13% | viability, T/C [31]: 0.3% | viability, T/C [32]: 0.27% | viability, T/C [33]: 0.3% | viability, T/C [34]: 0.31% | viability, T/C [35]: 0.44% | viability, T/C [36]: 0.22%

CC(CO)NC(=O)c1cc(-c2ccc(Cl)cc2)nn(-c2cnn(C)c2)c1=O (stereo unspecified) + CN1CCN(c2cc(C(=O)Nc3cc4cc(-c5cnn(C)c5)ccc4cn3)ccn2)CC1
IC50 (second compound 0.0316 µM): > 10000 nM | IC50 (second compound 0.1 µM): 229 nM | IC50 (second compound 0.316 µM): < 31.6 nM | IC50 (second compound 1 µM): < 31.6 nM | IC50 (second compound 3.16 µM): < 31.6 nM | IC50 (second compound 10 µM): < 31.6 nM | viability, T/C [1]: 81% | viability, T/C [2]: 83.5% | viability, T/C [3]: 68.8% | viability, T/C [4]: 71.7% | viability, T/C [5]: 92% | viability, T/C [6]: 54.1% | viability, T/C [7]: 73.4% | viability, T/C [8]: 53.2% | viability, T/C [9]: 47.8% | viability, T/C [10]: 51% | viability, T/C [11]: 53.9% | viability, T/C [12]: 39.6% | viability, T/C [13]: 14.4% | viability, T/C [14]: 19.4% | viability, T/C [15]: 18.1% | viability, T/C [16]: 18.6% | viability, T/C [17]: 19.8% | viability, T/C [18]: 16.7% | viability, T/C [19]: 1.96% | viability, T/C [20]: 2.25% | viability, T/C [21]: 2.62% | viability, T/C [22]: 1.95% | viability, T/C [23]: 1.85% | viability, T/C [24]: 1.4% | viability, T/C [25]: 1.05% | viability, T/C [26]: 1.27% | viability, T/C [27]: 0.89% | viability, T/C [28]: 0.99% | viability, T/C [29]: 0.97% | viability, T/C [30]: 0.84% | viability, T/C [31]: 0.26% | viability, T/C [32]: 0.3% | viability, T/C [33]: 0.26% | viability, T/C [34]: 0.29% | viability, T/C [35]: 0.33% | viability, T/C [36]: 0.27%

Reference: PubChem BioAssay AID2060624 (Molecular Pharmacology Branch, DTP, NCI, 2025)
